Measurements from patent US11806313B2, “Abiraterone acetate containing composition and application thereof” (Hunan Huize Biopharma S & T Co., Ltd, priority 2021, dated 2023).

Columns and labels:
[1] = assay type: physicochemical
Text: Therefore, the self-microemulsion system of the present invention can choose the mixture of glycerol monolinoleate (CC) and medium chain triglyceride (MCT) as the oil phase. […] Accordingly, when glycerol monolinoleate and medium chain triglyceride are used in combination as the oil phase, in order to ensure a larger drug loading capacity, the amount of CC in the oil phase should be as much as possible, while the amount of MCT should be as little as possible.
When PEG-40 hydrogenated castor oil (RH40) and 2-(2-ethoxyethoxy)ethanol (HP) are used in combination as the emulsion phase, in order to ensure the emulsification effect of the self-microemulsion system and to ensure a large drug loading capacity, one should increase the amount of RH40 in the emulsion phase while also reduce the amount of HP as much as possible.

[2] = cited from earlier work
[3] = cited from earlier work; remark: listed apart in the source
[4] = high-fat diet (57% fat, 825 calories)
[5] = low-fat diet (7% fat, 300 calories)

CC(=O)O[C@H]1CC[C@@]2(C)C(=CC[C@@H]3[C@@H]2CC[C@]2(C)C(c4cccnc4)=CC[C@@H]32)C1 [abiraterone acetate, (3β)-17-(3-pyridyl)androsta-5,16-dien-3-yl acetate]
solubility in 2-(2-ethoxyethoxy)ethanol (HP) [1]: about 69.0 mg/g | solubility in PEG-40 hydrogenated castor oil (RH40) [1]: about 24.7 mg/g | solubility in glycerol monolinoleate (CC) [1]: about 62.9 mg/g | solubility in medium chain triglyceride (MCT) [1]: about 28.4 mg/g | increase of AUC0-∞ with food [2, 4]: ~10 times | increase of Cmax with food [2, 4]: about 17 times | increase of AUC0-∞ of abiraterone with food [2, 5]: ~5 times | increase of Cmax of abiraterone with food [2, 5]: about 7 times | solubility in water [3]: less than 0.01 mg/ml
